These results are taken from patent US12048693B2, “Substituted halo-quinoline derivatives, method of preparation and applications thereof” (Institut National de la Sante et de la Recherche Medicale …, priority 2018, dated 2024).

Data set [1] relates to MiaPaca-2. Description: Cancer cell viability, trypan blue exclusion assay. Conditions: Homo sapiens, MIA PaCa-2, normalized to DMSO-treated control. The format is cell-based. On the procedure: (§1) Cancer Cell Proliferation Assay (A375, A549, PC3, HT-29, MiaPaca-2 and MCF-7)
(§2) The tested cancer cells are the following: human melanoma cells (A375), lung carcinoma cells (A549), prostate cancer cells (PC3), colon adenocarcinoma (HT29), pancreas carcinoma (MiaPaca 2) and breast carcinoma (MCF-7).
(§3) Cells were counted using a Malassez chamber. The average and standard deviation were calculated from triplicate experiments. Antiproliferative effects were evaluated by trypan blue exclusion assay. Briefly, cells were seeded into 12-well plate and grown in media supplemented with indicated compound at 1 or 10 μM for 48 h or 96 h. Cells were washed with PBS and detached by trypsinization, collected and colored by trypan blue.
(§4) As a comparison, cell viability was also determined and calculated as follow: Viability (%)=100−[(dead cell number/total cells)*100].

Data set [2] relates to HT29. Description: Cancer cell viability, trypan blue exclusion assay. It counts as cell-based. To be noted: Homo sapiens, HT-29, normalized to DMSO-treated control. On the procedure:
as §1, §2, §3, §4

The test system of data set [3] is PC3. Description: Cancer cell viability, trypan blue exclusion assay. It counts as cell-based. To be noted: Homo sapiens, PC-3, normalized to DMSO-treated control. As to the method: as §1, §2, §3, §4
For data set [4], the system named is MCF-7. Description: Cancer cell viability, trypan blue exclusion assay. It counts as cell-based. Conditions: Homo sapiens, MCF7, normalized to DMSO-treated control. On the procedure:
as §1, §2, §3, §4

In data set [5] the test system is A549. The data set is described as follows: Cancer cell viability, trypan blue exclusion assay. The format is cell-based. To be noted: Homo sapiens, normalized to DMSO-treated control. As to the method: as §1, §2, §3, §4
Data set [6] can be described thus: Melanocyte viability assay (MHN). The format is cell-based. To be noted: human, MHN melanocytes, 10 μM for 96 h, normalized to DMSO-treated control, read-out: Heathly Cell Viability MHN. On the procedure:
Melanocyte Viability Assay (MHN)
Cell viability effects were evaluated by trypan blue exclusion assay. Briefly, cells were seeded into 12-well plate and grown in media supplemented with indicated compound at 10 μM for 96 h. Cells were washed with PBS and detached by trypsinization, collected and colored by trypan blue. Dead and living cells were counted and cell viability was calculated as follow: Viability (%)=100−[(dead cell number/total cells)*100].

Data set [7] deals with melanoma cell line A375. Description: In vitro dose response study on A375 proliferation. It counts as cell-based. To be noted: Homo sapiens, A-375, 96 h, graded concentration. As to the method:
The melanoma cell line A375 was treated during 96 h with graded concentration of compounds 42 and 43. At the end of the culture period, the cell concentration was determined.

The test system of data set [8] is A375. Description: Cancer cell viability, trypan blue exclusion assay. It counts as cell-based. Conditions: Homo sapiens, A-375, normalized to DMSO-treated control. As to the method:
as §2
Cells were counted using a Malassez chamber. The average and standard deviation were calculated from triplicate experiments. Antiproliferative effects were evaluated by trypan blue exclusion assay. […] Cells were washed with PBS and detached by trypsinization, collected and colored by trypan blue.
as §4

For data set [9], the system named is PC3. Description: Cancer cell proliferation assay. The format is cell-based, human. Conditions: 10 μM, normalized to DMSO-treated control. As to the method:
as §1, §2, §3
Dead and living cells were counted and proliferation was calculated as follow: Proliferation (%)=[(treated cell number/untreated cells number)*100].

Broadly, the viability is a read-out of living cells in per cent, often relative to untreated cells. One may read the IC50 as the concentration needed to halve the response being measured. A lower IC50 goes with greater potency. Regarding `COCCOc1ccc(Nc2ccnc3cc(Cl)ccc23)cc1` [Compound 42, 7-chloro-N-(4-(2-methoxyethoxy)phenyl)quinolin-4-amine], the viability at 10 µM in data set [1] is 100%; in [2] it was 97.3%; in [3], 98.9%; in data set [4], 97.2%; in data set [5], 99.7%; in data set [8], 99.3%. In addition, in data set [6], the viability at 96 h, 10 μM was determined as 99%. The compound also yielded a concentration for half-maximal inhibition (IC50) in data set [7] of 0.42 µM.
Regarding `COc1ccc(Nc2ccnc3cc(Cl)ccc23)cc1O` [Compound 43, 7-chloro-N-(3-(hydroxy)-4-(methoxy)phenyl)quinolin-4-amine], the viability at 10 µM in data set [1] came to 97.6%; in data set [2] it was 85.8%; in [3], 94.6%; in [4] it was 99.6%; in [5], 99.8%. This compound returned an IC50 in [7] of 1.83 µM. The “Cancer Cell Proliferation” value in data set [9] was found to be 55.0%.
